Article PMC9918186, “Interaction of Positively Charged Oligopeptides with Blood Plasma Proteins” (International Journal of Molecular Sciences, 2023)

Tests used:
BSA = biological target: T1, BSA (Bos taurus, UniProt P02769); assay: ATR-FTIR Amide I deconvolution, secondary structure of BSA with peptide; design: species or system bovine; details: for Random Coil of BSA / β-Anti of BSA / β-Sheet of BSA / β-Turn of BSA / α-Helix of BSA: ATR-FTIR Amide I
T1 construct: purchased Sigma Aldrich
From the text: The perturbation in protein structure conformation can be monitored by CD spectroscopy as well as the ATR-FTIR method. These secondary structure changes are confirmation of the interaction between the studied compound and the protein [64, 65, 66, 67]. The range of the wavenumber from 1700 to 1000 cm^−1 is the most varied region and with the richest information on protein spectra. The most characteristic bands are Amide I and Amide II, which originate from the C=O stretching vibration and C–N– stretching coupled with N–H bending, respectively. Amide I was detected for BSA at 1652 cm^−1 and GGF at 1637 cm^−1 (Figure 4). The differences in the position of these bands are connected with the variety in the secondary structure conformation, while Amide II consistently occurred at 1545 and 1546 cm^−1 on the BSA and GGF spectra, respectively (Figure 4). The much less intense peak of Amide III usually accrued by C–N– stretching and bending vibration was only noticed in the BSA spectrum at 1307 cm^−1 (Figure 4). The peaks detected at 1454 cm^−1 (BSA) and 1452 cm^−1 (GGF) appeared by CH3 group symmetric and asymmetric bending vibration (δs, δas). The absorption signal 1400 cm^−1 may be assigned to stretching vibration (ν) caused by the carboxylic group (COO^−). The studied peptides interact with BSA and GGF, which is manifested by a reduction in the intensity of the absorption peaks (Figure 4). With the increase in the ligand concentration in the protein solution, the intensity of the absorption peaks decreased (Figure 4). The Amide I and II in the BSA spectrum decreased above all after binding with L1 and slightly in the samples from L2 and L3. […] Moreover, after the complexation of the investigated peptides with GGF, an increase in the band 1060 cm^−1 was responsible for stretching vibration C–O absorption, which was manifested the most by L2 and L3 compounds.
The shape and intensity variation in the Amide I band is the confirmation of peptide L1, L2, and L3 interaction with the protein’s backbone. The hydrogen bonds in the protein structure are violated after the active molecules’ binding and influence the frequency of the C=O vibrations’ absorption. The frequency of stretching vibrations can be reduced after changes in hydrogen bonding in the protein, whereas the frequency of bending vibrations can be increased after ligand to protein complexation. The Byler and Susi procedure was used to analyse the secondary structure protein conformation. The quantity analysis of the secondary structure in the protein is mostly conducted based on Amide I deconvolution, and it is the most frequently analyzed vibration band, which is very vulnerable to the detection of changes in the structure. The fragment of each normalized spectrum with the Amide I peak was extracted and a second derivate was made. The self-deconvolution and curve fitting by the Gaussian/Lorenzian function allowed determination of the intensity and total area under the peaks, which corresponds with the contribution of the type of structure. The position of each band component may be assigned to a corresponding shape of the secondary structure: the α-helix (1660–1647 cm^−1), β-sheet (1640–1610 cm^−1), β-turn (1660–1680 cm^−1), β-antiparallel (1681–1695 cm^−1), and random coil (1650–1630 cm^−1) structures.
The infrared spectra were measured on Nicolet iS50 FTIR (Thermo Scientific, Waltham, MA, USA) spectrometer equipped with Attenuated Total Reflectance (ATR) accessory. The deuterated triglicyne sulphate (DTGS) detector and KBr beam splitter were applied. The spectral data were recorded within the range of 4000 to 600 cm^−1 with a resolution of 4 cm^−1 and 100 scans were averaged for each spectrum. The measurements were accomplished at room temperature. The concentration of blood plasma proteins BSA (Sigma Aldrich, USA), and GGF (Sigma Aldrich, USA) were 6.5 × 10^−4 moldm^−3. […]

[1] = previous studies; cited from earlier work
From the text: (§1) The subject of this study was oligopeptides with the following sequences: Lys-Dab-Dab-Gly-Orn-Pro-His-Lys-Arg-Lys-Dbt, Lys-Dab-Ala-Gly-Orn-Pro-His-Lys-Arg, and Lys-Dab-Dab-Gly-Orn-Pro-Phe(2-F)-Lys-Arg, which are referred to as L1, L2, and L3, respectively, in the remainder of this work. The investigated oligopeptides consist of an amino group (NH2) in the side chain of unique unnatural amino acids such as Dab (2,4-diaminobutyric acid) and Orn (2,5-diaminopentanoic acid) and standard amino acids such as Lys, and N-terminus and in Dbt in the C-terminal region. Additionally, the presence of the g ...

[2] = tested on: oxygen-free radical species (ROS); details: previous studies; cited from earlier work
From the text: as §1

T1 sequence (P02769 25-607): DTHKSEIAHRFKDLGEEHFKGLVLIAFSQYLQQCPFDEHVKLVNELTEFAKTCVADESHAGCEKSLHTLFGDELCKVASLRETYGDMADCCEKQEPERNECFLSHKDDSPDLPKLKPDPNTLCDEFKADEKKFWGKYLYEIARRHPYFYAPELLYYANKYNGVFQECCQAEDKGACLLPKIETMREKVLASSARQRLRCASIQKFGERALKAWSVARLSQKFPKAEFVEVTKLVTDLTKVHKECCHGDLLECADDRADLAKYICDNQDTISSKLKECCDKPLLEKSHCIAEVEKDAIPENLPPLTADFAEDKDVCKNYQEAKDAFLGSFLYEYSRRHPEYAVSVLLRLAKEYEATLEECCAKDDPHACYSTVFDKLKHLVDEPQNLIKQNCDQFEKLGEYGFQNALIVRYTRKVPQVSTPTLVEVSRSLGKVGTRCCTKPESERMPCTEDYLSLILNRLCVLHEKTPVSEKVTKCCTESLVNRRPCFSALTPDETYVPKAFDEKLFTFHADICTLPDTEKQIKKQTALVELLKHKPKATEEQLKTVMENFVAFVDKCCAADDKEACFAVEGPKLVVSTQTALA

With “Lys-Dab-Dab-Gly-Orn-Pro-His-Lys-Arg-Lys-Dbt [L1]” the “Random Coil of BSA” value (BSA; BSA/peptide 1:0.5) was 26.54%, the “β-Anti of BSA” value (BSA; BSA/peptide 1:0.5) was 0.77% and the “β-Sheet of BSA” value (BSA; BSA/peptide 1:0.5) was 3.87%. For the same substance, the “β-Turn of BSA” value (BSA; BSA/peptide 1:0.5) was 7.47%, the “α-Helix of BSA” value (BSA; BSA/peptide 1:0.5, BSA 6.5 × 10^−4 M, room temperature) was 61.36% and the “Random Coil of BSA” value (BSA; BSA/peptide 1:1.0) was 27.93%. For the same substance, the “α-Helix of BSA” value (BSA; BSA/peptide 1:1.0) was 49.45%, the “β-Anti of BSA” value (BSA; BSA/peptide 1:1.0) was 0.49% and the “β-Sheet of BSA” value (BSA; BSA/peptide 1:1.0) was 8.28%. The “β-Turn of BSA” value (BSA; BSA/peptide 1:1.0) was 13.86%, the “Random Coil of BSA” value (BSA; BSA/peptide 1:1.5) was 27.61% and the “α-Helix of BSA” value (BSA; BSA/peptide 1:1.5) was 49.40%. The “β-Anti of BSA” value (BSA; BSA/peptide 1:1.5) was 0.31%, the “β-Sheet of BSA” value (BSA; BSA/peptide 1:1.5) was 8.69% and the “β-Turn of BSA” value (BSA; BSA/peptide 1:1.5) was 13.99%. For the same substance, the “differences in the secondary structure of BSA” value (BSA; ATR-FTIR, after peptide addition) was 16%, the “decrease of β-antiparallel framework of albumin” value (BSA; ATR-FTIR, versus free BSA) was “about 2%” and the “growth of β-sheet of albumin” value (BSA; ATR-FTIR, versus free BSA) was 7.05%. The “growth of β-turn of albumin” value (BSA; ATR-FTIR, versus free BSA) was 7.34%, the “increase in the share of the random structure of albumin” value (BSA; ATR-FTIR, versus free BSA) was 2% and the “reduction in the α-helix of albumin” value (BSA; ATR-FTIR, versus free BSA) was “more than 14%”. The anti-inflammatory activity [1] was “possess anti-inflammatory activity” and the “effect on level of oxygen-free radical species (ROS)” value [2] was “reduce the level of oxygen-free radical species (ROS)”.
